Results as given in ChEMBL document CHEMBL1201862, “PubChem BioAssay data set” (2004).
Activity calls are given as the source filed them.

Tests used:
[1] = Trypanosoma cruzi growth suppression in host cells – NIH3T3 host cells, beta-gal luminescence, confirmation (AID 2044); assay type: functional, cell-based;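 further: intracellular parasites grown in NIH/3T3 mouse fibroblasts as host cells; luminescent beta-galactosidase reporter signal from transgenic T. cruzi replicating inside host cells; inhibitors lower the luminescence signal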
[2] = NIH3T3 cell viability loss – ATP luminescence, mouse fibroblasts, counter-screen, dose response (AID 2010); assay type: functional, cell-based;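 further: cells exposed to compound for about 90 hours before reading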
[3] = viability of uninfected HEp-2 cells – cell-based, HTS, cytotoxicity control for RSV inhibitor project, dose response (AID 2410); assay type: functional; conditions: human respiratory syncytial virus
Cytochrome P450 2C9 = Cytochrome P450 2C9 (Homo sapiens, UniProt P11712)
Cytochrome P450 2C9, sequence (P11712 whole entry): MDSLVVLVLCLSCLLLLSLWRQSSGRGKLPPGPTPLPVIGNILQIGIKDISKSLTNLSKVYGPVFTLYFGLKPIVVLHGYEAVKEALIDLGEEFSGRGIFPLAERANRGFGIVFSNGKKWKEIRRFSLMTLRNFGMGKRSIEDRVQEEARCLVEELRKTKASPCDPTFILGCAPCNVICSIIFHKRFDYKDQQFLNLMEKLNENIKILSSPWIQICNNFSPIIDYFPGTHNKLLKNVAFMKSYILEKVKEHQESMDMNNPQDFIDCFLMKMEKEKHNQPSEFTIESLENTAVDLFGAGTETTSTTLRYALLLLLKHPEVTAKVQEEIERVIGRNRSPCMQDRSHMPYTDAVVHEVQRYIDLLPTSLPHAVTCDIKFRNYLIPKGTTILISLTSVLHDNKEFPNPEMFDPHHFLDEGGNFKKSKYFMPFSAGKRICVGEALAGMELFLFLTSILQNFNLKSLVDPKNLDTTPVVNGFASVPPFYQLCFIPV

Streptococcus = assay: GAS UMAA2166 growth inhibition – luminescence, BacTiterGlo, counter-screen for streptokinase expression inhibitor project, dose response (AID 1915); assay type: functional, organism-based;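 further: potency for reduction of bacterial viability or growth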
[4] = tested on: Streptococcus sp. 'group A'; assay: Streptococcus pyogenes SK(-)GAS viability under kanamycin – luminescence, BacTiterGlo, confirmation, counter-screen for streptokinase expression inhibitor project, dose response (AID 1900); assay type: functional, organism-based
[5] = target: T1, Heat shock factor protein 1 (Mus musculus, UniProt P38532); assay: decrease of HSF1-responsive luciferase luminescence – cell-based, NIH3T3, dose retest, confirmation (AID 2382); assay type: functional;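 further: NIH3T3 fibroblasts with HSF1-driven luciferase reporter stressed by proteasome inhibitor MG132; luminescence from HSF1-driven luciferase expression after 8 hours of MG132 stress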
T1 sequence (P38532 whole entry): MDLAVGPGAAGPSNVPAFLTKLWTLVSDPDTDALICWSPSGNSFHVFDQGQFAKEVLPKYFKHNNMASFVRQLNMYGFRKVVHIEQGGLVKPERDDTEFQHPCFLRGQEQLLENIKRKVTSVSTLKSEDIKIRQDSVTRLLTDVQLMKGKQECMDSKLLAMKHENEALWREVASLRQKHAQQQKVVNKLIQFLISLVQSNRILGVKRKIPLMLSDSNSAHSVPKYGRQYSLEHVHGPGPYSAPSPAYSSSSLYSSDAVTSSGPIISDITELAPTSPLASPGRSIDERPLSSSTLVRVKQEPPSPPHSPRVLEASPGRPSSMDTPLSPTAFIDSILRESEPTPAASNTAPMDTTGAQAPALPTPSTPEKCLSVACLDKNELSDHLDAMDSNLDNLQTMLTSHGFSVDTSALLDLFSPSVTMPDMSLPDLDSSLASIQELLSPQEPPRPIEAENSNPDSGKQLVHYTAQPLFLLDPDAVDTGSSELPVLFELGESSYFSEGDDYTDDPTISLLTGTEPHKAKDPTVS

[6] = fluconazole-exposed Candida albicans growth modulators – fluorescence, retest, confirmation (AID 2467); assay type: functional, cell-based
[7] = NIH-3T3 fibroblast cytotoxicity, dose response, cytotoxicity control, cell-based, fluorescence, Alamar Blue, secondary assay (AID 2327); assay type: functional;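 further: NIH-3T3 mouse fibroblasts cultured with fluconazole at 8 µg/mL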
Cytochrome P450 2C19 = Cytochrome P450 2C19 (Homo sapiens, UniProt P33261); assay: Cytochrome panel assay with activity outcomes. Panel member name: p450-cyp2c19 Compounds with AC50 equal or less than 10 uM are considered active; assay type: functional
Cytochrome P450 2C19, sequence (P33261 whole entry): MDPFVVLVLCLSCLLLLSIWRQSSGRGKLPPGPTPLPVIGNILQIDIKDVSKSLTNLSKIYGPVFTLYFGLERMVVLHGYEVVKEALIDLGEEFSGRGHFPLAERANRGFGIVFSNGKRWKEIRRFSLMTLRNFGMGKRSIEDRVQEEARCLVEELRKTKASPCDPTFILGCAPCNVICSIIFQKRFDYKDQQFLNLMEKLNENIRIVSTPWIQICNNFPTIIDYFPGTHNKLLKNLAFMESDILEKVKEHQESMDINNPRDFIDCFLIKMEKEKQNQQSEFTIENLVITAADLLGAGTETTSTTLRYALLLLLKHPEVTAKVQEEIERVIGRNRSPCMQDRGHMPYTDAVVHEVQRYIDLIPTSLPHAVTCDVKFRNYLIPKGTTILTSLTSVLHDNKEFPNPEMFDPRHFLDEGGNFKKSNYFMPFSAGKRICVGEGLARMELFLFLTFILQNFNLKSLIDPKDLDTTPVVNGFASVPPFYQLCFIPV

CCOc1ccc(CN(C)CC(=O)Nc2cccc(S(=O)(=O)N(C)c3ccccc3)c2)cc1
EC50 [1]: 0.181 µM (active) | EC50 [2]: > 60 µM (not active)

N#Cc1ccc(OCCOCCNC2CCCC2)cc1
EC50 [1]: 0.2 µM (active) | EC50 [2]: > 60 µM (not active)

CCN1C(=O)/C(=C2/C(=O)Nc3ccccc32)c2cc(Br)ccc21
EC50 [1]: 1.3 µM (active) | EC50 [2]: > 60 µM (inconclusive)

COC(=O)C1=C(C)N(c2ccc(Cl)cc2)/C(=C/c2ccc(O)cc2)C1=O
CC50 [3]: 36.3 µM (active)

COC(=O)/C(=N/Nc1ccc(C)cc1)N1CCCc2ccccc21
CC50 [3]: 22.3 µM (active)

c1ccc(CSc2nnc(-c3sccc3-n3cccc3)o2)cc1
AC50 (Cytochrome P450 2C9): 39.8 µM (inconclusive)

O=C(N/N=C/c1cccc(Oc2ccccc2)c1)c1cccc(Br)c1
CC50 [3]: 17 µM (active)

Fc1cccc(Cl)c1Cn1nnc(-c2ccc3c(c2)OCO3)n1
CC50 [3]: 26.2 µM (active)

CC(C)C[C@H](NC(=O)c1[nH]cnc1C(=O)N[C@@H](Cc1ccccc1)C(=O)OC(C)(C)C)C(=O)OC(C)(C)C
EC50 (Streptococcus): 5.07 µM (active) | EC50 [4]: 2.33 µM (active)

O=C(COC(=O)c1cc(Cl)ccc1O)NNC(=O)c1ccc([N+](=O)[O-])cc1
EC50 [5]: > 195 µM (not active)

Cc1ccc(-c2csc(NC(=O)c3ccc(S(=O)(=O)N4CCc5ccccc54)cc3)n2)cc1
EC50 [5]: > 195 µM (not active)

CCn1c2ccc(F)cc2c2nnc(SCCN3CCCCC3)nc21
EC50 [1]: 0.777 µM (active) | EC50 [2]: > 60 µM (not active)

Cc1cccc(OCC(=O)OC2CCN(C)CC2)c1
EC50 [5]: > 195 µM (not active)

O=C(CCc1ccc(Oc2cc([N+](=O)[O-])cc([N+](=O)[O-])c2)cc1)NC1CCCC1
EC50 [1]: 0.106 µM (active) | EC50 [2]: > 30 µM (not active)

CCNc1nc(NC(C)C)nc(N2CC(=O)N(CC(=O)OCC)C2=N)n1
CC50 [3]: 25.2 µM (active)

COc1ccc(C(=O)C2CCCN(S(=O)(=O)c3ccccc3F)C2)c(C)c1 (stereo unspecified)
EC50 [5]: > 195 µM (not active)

CC(C)(C)c1csc(NC(=O)Cn2cnc3ccccc3c2=O)n1
EC50 [6]: > 38 µM (not active) | EC50 [7]: > 150 µM (inconclusive)

CCc1nnc(NC(=O)CSc2nnc(CNc3cccc(C)c3)n2-c2ccccc2)s1
EC50 [6]: > 38 µM (not active) | EC50 [7]: > 150 µM (inactive)

Nc1cccc(/C=C/C(=O)O)c1
EC50 [5]: > 195 µM (not active)

CCCCCCCCn1c(N2CCN(c3cccc(Cl)c3)CC2)nc2c1c(=O)[nH]c(=O)n2C
EC50 [1]: 2.22 µM (active) | EC50 [2]: > 60 µM (not active)

Cc1ccc(NC(=O)CC2SC(N/N=C3\CCCc4ccccc43)=NC2=O)cc1 (stereo unspecified)
CC50 [3]: 15.5 µM (active)

CC(=O)NC12CC3CC(C1)CC(C(=O)Oc1ccc(N(C)S(=O)(=O)c4cc(C)ccc4C)cc1)(C3)C2
CC50 [3]: 34.2 µM (active)

CN1CCN(Cc2cccc(Oc3ccc(Cl)cc3)c2)CC1
EC50 [1]: 0.267 µM (active) | EC50 [2]: > 60 µM (inconclusive)

N#Cc1cc2c(nc1SCC(=O)N1CCOCC1)CCCCC2
EC50 [5]: 2.01 µM (active)

CSc1cc(-c2ccccc2)n(C)c(=O)c1C#N
EC50 [6]: > 38 µM (not active) | EC50 [7]: 117 µM (active)

Cc1ccc2cc(CCNC(=O)c3ccc(Br)o3)c(O)nc2c1
AC50 (Cytochrome P450 2C9): 10 µM (inconclusive)

O=C(CSCc1ccc(Cl)cc1)Nc1cc([N+](=O)[O-])ccc1O
EC50 [6]: 0.491 µM (active) | EC50 [7]: > 150 µM (inactive)

O=[N+]([O-])c1ccc(CSCc2ccc(Cl)cc2)cc1
AC50 (Cytochrome P450 2C9): 7.94 µM (inconclusive)

c1ccc(-c2nn[nH]n2)nc1
EC50 [5]: > 195 µM (not active)

C=CCN(C(=O)CSC1=NC(=O)CN1C(C)=O)c1nc(C)c(-c2ccccc2)s1
EC50 [1]: 1.58 µM (active) | EC50 [2]: > 30 µM (not active)

Cc1nc(S(=O)(=O)NC2CCCCC2)c(C#N)c(C)c1Cl
AC50 (Cytochrome P450 2C9): 28.2 µM (inconclusive)

CN1CCN(Cc2ccc(Sc3ccc(Cl)cc3)c([N+](=O)[O-])c2)CC1
EC50 [1]: 1.13 µM (active) | EC50 [2]: > 60 µM (not active)

CCC(=O)Nc1ccccc1C(=O)OCC(=O)c1ccc2ccccc2c1
CC50 [3]: 25 µM (active)

Cc1cc(C)n(C(=O)c2ccncc2)n1
EC50 [5]: > 195 µM (not active)

CC(C)c1nnc(-c2ccc(Cl)cc2)c(N(C)C)n1
AC50 (Cytochrome P450 2C9): 10 µM (inconclusive)

Cc1ccccc1N1CCN(CCN2C(=O)CC(=C3c4ccccc4-c4ccccc43)C2=O)CC1
EC50 [6]: 3.89 µM (active) | EC50 [7]: > 160 µM (inactive)

COC(=O)c1cccc(NC(=O)CN2CCN(Cc3ccccc3)CC2)c1
EC50 [5]: > 195 µM (not active)

Nc1cc2c(nc3c4ccccc4c(N)cc3[n+]2-c2cccc3ccccc23)c2ccccc12.Nc1cc2c(nc3c4ccccc4ccc3[n+]2-c2cccc3ccccc23)c2ccccc12
AC50 (Cytochrome P450 2C9): 2.51 µM (inconclusive)

CCc1c(C)sc(NC(=O)CN2CCN(C(=O)c3ccco3)CC2)c1C(=O)OC
CC50 [3]: 12.7 µM (active)

Cn1c(=O)c2cn(-c3ccc4c(c3)OCCO4)cc2n(C)c1=O
EC50 [5]: > 195 µM (not active)

O=C(NCC1CCCO1)c1cc2c3ccccc3nc-2c(-c2cccc(Br)c2)[nH]1 (stereo unspecified)
EC50 [1]: 0.882 µM (active) | EC50 [2]: > 60 µM (not active)

Nc1ccn([C@H]2O[C@@H](COP(=O)(O)O)[C@@H](O)[C@H]2O)c(=O)n1
AC50 (Cytochrome P450 2C19): inconclusive

COc1ccc(CCn2c(C)cc3c(c2=O)C(c2ccc4c(c2)OCO4)C(C#N)=C(N)O3)cc1OC (stereo unspecified)
EC50 [6]: > 38 µM (not active) | EC50 [7]: > 160 µM (inactive)

O=C(COC(=O)c1cc[n+]([O-])cc1)Nc1cccc(Cl)c1Cl
EC50 [5]: 23 µM (active)

O=C(Cc1cccs1)Nc1cccc(-c2nc3ccccc3[nH]2)c1
EC50 [6]: 3.52 µM (active) | EC50 [7]: > 150 µM (inconclusive)

Cc1nc2c(=O)oc3ccccc3c2n1-c1ccccc1
EC50 [6]: 2.15 µM (active) | EC50 [7]: > 150 µM (inactive)

Cc1ccccc1-c1nc2sc3c(c2c(=O)n1N)CCCC3
EC50 [5]: > 195 µM (not active)

Cn1c(=S)c2nc(SCCN3CCCC3)[nH]c2n(C)c1=O
AC50 (Cytochrome P450 2C9): 3.16 µM (inconclusive)

O=[N+]([O-])c1ccc(C2CCCC/C2=N/OCc2ccc(F)cc2)c([N+](=O)[O-])c1 (stereo unspecified)
EC50 [1]: 0.492 µM (active) | EC50 [2]: > 60 µM (not active) | EC50 [6]: 21.6 µM (active) | EC50 [7]: > 160 µM (inactive)

O=c1[nH]c(NCCO)nc2c1C1(CCCCC1)Cc1ccccc1-2
CC50 [3]: > 50 µM (active)

CCCCNC(=O)NS(=O)(=O)c1cnccc1Sc1ccc(Cl)cc1
AC50 (Cytochrome P450 2C19; read-out: AC50): 22.4 µM (inconclusive)

Cc1c(O)cccc1C(=O)N[C@@H](CSc1ccccc1)[C@H](O)CN1C[C@H]2CCCC[C@H]2C[C@H]1C(=O)NC(C)(C)C
EC50 [1]: 3.42 µM (active) | EC50 [2]: > 60 µM (not active)

COc1ccc(CCNC(=O)[C@H](C)N2C(=O)N3CCc4c([nH]c5ccccc45)[C@@]3(C)C2=O)cc1
EC50 [1]: 1.97 µM (active) | EC50 [2]: > 60 µM (not active)

O=C(Oc1ccc2ccc(=O)oc2c1)c1ccco1
EC50 [1]: > 60 µM (not active) | EC50 [2]: > 60 µM (not active)

CC(=O)COc1ccc2c3c(c(=O)oc2c1)CCCC3
CC50 [3]: > 50 µM (active)

CC(C)(C)NS(=O)(=O)c1cc2c3c(c1)CCN3C(=O)CC2
EC50 [5]: > 195 µM (not active)

CCCCn1c(-c2ccco2)nc2oc3ccccc3c(=O)c2c1=O
EC50 (Streptococcus): 46.1 µM (active) | EC50 [4]: 64 µM (active)

Cn1c(=O)c(=O)n(C)c2cc(S(=O)(=O)NCCN3CCN(c4ccccc4F)CC3)ccc21
EC50 [1]: 0.496 µM (active) | EC50 [2]: > 60 µM (not active)

CC1(C)Cc2c(C#N)c(SCCOc3ccccc3)nc(N3CCOCC3)c2CO1
EC50 [1]: 1.49 µM (active) | EC50 [2]: > 60 µM (not active)

COc1ccccc1Cn1c(=O)c2ccccc2n2c(Sc3ncnc4sccc34)nnc12
CC50 [3]: 19.6 µM (active)

CNC(S)=Nc1sc2c(c1C(=O)OC)CCC2
CC50 [3]: 36.2 µM (active)

O=C(NNC(=O)c1ccccc1O)c1ccc(Cl)cc1
AC50 (Cytochrome P450 2C9): 20 µM (inconclusive)

CCOc1ccc(NCC(=O)c2ccc(C)cc2)cc1
EC50 [1]: 1.38 µM (active) | EC50 [2]: > 30 µM (not active) | EC50 [5]: > 195 µM (not active)

Cc1ccc(S(=O)(=O)N(C)c2c(C)ccc(S(=O)(=O)N3CCN(C)CC3)c2C)cc1
EC50 [5]: > 195 µM (not active)

C=CCNC(=S)N/N=C/c1ccc(-c2ccc(OC)cc2)o1
EC50 [1]: 1.76 µM (active) | EC50 [2]: > 60 µM (not active) | EC50 [6]: > 38 µM (not active) | EC50 [7]: > 150 µM (inactive)

CCOc1ccc(CN2CCC(C(=O)N3CCN(c4ccccc4F)CC3)CC2)cc1OC
EC50 [1]: 0.182 µM (active) | EC50 [2]: > 30 µM (not active)

CCNc1nc(NCC)nc(ON=C(C)C)n1
AC50 (Cytochrome P450 2C19; read-out: AC50): 17.8 µM (inconclusive)
